How the values were obtained:
MDA-MB-231 xenograft [1] = assay: In vivo antitumor activity in MDA-MB-231 xenograft model (Example 25); set-up: species or system SCID mice
Experimental: For the in vivo efficacy experiments of this example, when tumors reached 80-200 mm^3, SCID mice were randomized into groups. Cpd. A, Cpd. No. 4, Cpd. No. 6, or vehicle control (10% PEG400: 3% Cremophor: 87% PBS, or 2% TPGS:98% PEG200) was given at the dose and duration indicated. Tumor sizes and animal weights were measured 2-3 times per week. Tumor volume (mm^3)=(length×width^2)/2. Tumor growth inhibition was calculated as TGI (%)=(Vc−Vt)/(Vc−Vo)*100, where Vc, Vt are the median of control and treated groups at the end of the study and Vo at the start. All the in vivo studies were performed under an animal protocol approved by the University Committee on Use and Care of Animals of the University of Michigan, in accordance with the recommendations in the Guide for the Care and Use of Laboratory Animals of the National Institutes of Health.
No. 4 was determined in xenograft tumor models of TNBC cell lines.

[2] = Pharmacokinetics (PK) analysis in tumor bearing mice; type: in vivo
Experimental: (§1) Cpd. […] A at 50 mg/kg, daily, oral dosing, 5 days a week for 3 weeks. Cpd. […] Neither Cpd. A nor Cpd. No. 4 caused significant weight loss (data not shown) or apparent toxicity in this model. […] No. 4 (10 mg/kg) reduced the levels of BET proteins by >80% at as early as 1 h and this effect lasted for at least 9 h in WHIM24 tumors (data not shown). […] No. 4 treatment (data not shown). […] No. 4 is reversible once the drug is cleared from the tumor tissue.

BET proteins = assay: PD analysis of BET proteins in WHIM24 tumors; type: in vivo, mice; conditions: single IV dose 10 mg/kg
Experimental: as §1

SKML = assay: Cell growth inhibition (CellTiter-Glo), leukemia line SKML; type: cell-based
Experimental: (§2) Cell growth inhibitory activity of representative BET bromodomain degraders in representative non-small cell lung cancer cell lines was determined using the CellTiter-Glo® Luminescent Cell Viability Assay. Cells were seeded in 384-well white opaque cell culture plates at a density of 2,000 cells/well with serially diluted compounds and incubated at 37° C. in an atmosphere of 95% air and 5% CO2 for 4 days. Cell viability was determined using the CellTiter-Glo® Luminescent Cell Viability Assay Kit (Promega, Madison, Wis.) according to the manufacture's instruction. Briefly, a volume of CellTiter-Glo® Reagent equal to the volume of cell culture medium was added to each well, and then the plates were incubated at room temperature for 10-20 minutes. The luminescent signal was measured using a Tecan Infinite M1000 multimode microplate reader (Tecan, Morrisville, N.C.). The half maximal inhibitory concentration (IC50) was calculated using the GraphPad Prism 5 software (GraphPad Software, La Jolla, Calif.). Cpd. A is a BET bromodomain inhibitor, see U.S. Appl. No. 62/121,637, having the following structure: Cell growth inhibitory activity of representative BET bromodomain degraders in representative leukemia cell lines, see Table 8, was determined as described in Example 17.

Mono-Mac6 = assay: Cell growth inhibition (CellTiter-Glo), leukemia line Mono-Mac6; type: cell-based; conditions: Homo sapiens, MONO-MAC-6
Experimental: as §2

AML-193 = assay: Cell growth inhibition (CellTiter-Glo), leukemia line AML-193; type: cell-based; conditions: AML-193 leukemia cell line
Experimental: as §2

RS4; 11 = assay: Cell growth inhibition (CellTiter-Glo), leukemia line RS4; 11; type: cell-based; conditions: Homo sapiens, 11 leukemia cell line
Experimental: as §2

K61 = assay: Cell growth inhibition (CellTiter-Glo), leukemia line K61; type: cell-based
Experimental: as §2

AML-5 = assay: Cell growth inhibition (CellTiter-Glo), leukemia line AML-5; type: cell-based; conditions: AML-5 leukemia cell line
Experimental: as §2

AML-3 = assay: Cell growth inhibition (CellTiter-Glo), leukemia line AML-3; type: cell-based; conditions: AML3; AML-3 leukemia cell line
Experimental: as §2

MOLM16 = assay: Cell growth inhibition (CellTiter-Glo), leukemia line MOLM16; type: cell-based
Experimental: as §2

TNBC cell lines = assay: Apoptosis induction in TNBC cell lines; type: cell-based; conditions: triple-negative breast cancer (TNBC) cell lines (FIG. 12)
MDA-MB-231 xenograft [3] = assay: Efficacy of Cpd. No. 9 in MDA-MB-231 xenograft model; type: in vivo, SCID mice; conditions: MDA-MB-231 xenograft model in mice, i.v. (FIG. 7)
Experimental: Cpd. No. 9 was dissolved in 10% PCP [10% PEG400 (Sigma)+3% Cremophor (Sigma)+87% PBS (Gibco)]. The pH of the drug solutions were checked before use and adjusted with 0.5N NaOH to be between pH 6.5 and 8.0 for IV (intravenous) administration.
Human breast tumor cells, MDA-MB-231 (ATCC®) were maintained at 37° C., 95% air, 5% carbon dioxide in Improved MEM (Richter's Mod.) supplemented with 10% Fetal Bovine Serum, 100 units/ml of penicillin and […] (GIBCO™, Invitrogen Corp.) and passaged twice weekly.
Tumor cells for xenografts were harvested with Trypsin (0.05%)-EDTA (0.53 mM) (GIBCO™, Invitrogen Corp.), growth medium added and cells placed on ice. Cells were washed once with 1×PBS (GIBCO™, Invitrogen Corp.) and re-suspended in PBS. After washing in PBS, cells were re-suspended in an ice cold mixture of 1:1 PBS and Matrigel (BD Biosciences, Invitrogen Corp.) for a final Matrigel protein concentration of 5 mg/ml. Cells at 5×10^6 cells in 0.1 ml were injected subcutaneously (s.c.) into the flank region of each mouse using a 25 gauge needle. […]
The size of tumors growing in the mice was measured in two dimensions using calipers. […] During treatment, tumor volume and body weight were measured three times a week. After the treatment was stopped, tumor volume and body weight was measured at least once a week. […]

CCn1nc(C2CC2)cc1Nc1nc(C(=O)NCCCOCCOCCOCCCNc2cccc3c2C(=O)N(C2CCC(=O)NC2=O)C3=O)nc2[nH]c3cc(-c4c(C)noc4C)c(OC)cc3c12 (stereo not shown) [Cpd. No. 4]
antitumor activity (MDA-MB-231 xenograft [1]; MDA-MB-231 model, 10 mg/kg, IV, 3 times per week for 2-3 weeks (FIG. 10)): limited or no antitumor activity
tumor growth (MDA-MB-231 xenograft [1]; MDA-MB-231 xenograft model in mice (FIG. 10)): reduce tumor growth
drug exposure in the xenograft tumor tissue ([2]; MDA-MB-231 and MDA-MB-468 models (data not shown)): limited drug exposure
drug exposure in the WHIM24 xenograft tumor tissue ([2]; WHIM24 model): good drug exposure
drug concentrations in both plasma and tumors over time ([2]; single dose 10 mg/kg, WHIM24 tumor bearing mice (data not shown)): diminished rapidly
drug exposure in plasma and WHIM24 tumors ([2]; single dose 10 mg/kg, tumor bearing mice, at 1 and 3 h (data not shown)): reasonable drug exposure
time at which protein levels of BRD2, BRD4 and MCL1 started to rebound (BET proteins; WHIM24 tumors): 12 h
duration of the reduction of BET proteins in WHIM24 tumors (BET proteins): at least 9 h
reduction of the levels of BET proteins in WHIM24 tumors (BET proteins; at as early as 1 h (data not shown)): > 80%
IC50 (SKML): 200 nM
IC50 (Mono-Mac6): 1400 nM
IC50 (AML-193): 40 nM
IC50 (RS4; 11): 50 nM
IC50 (K61): 11800 nM
IC50 (AML-5): 500 nM
IC50 (AML-3): 400 nM
IC50 (MOLM16): 300 nM
apoptosis induction (TNBC cell lines): induces stronger apoptosis than Cpd. A

CCn1nc(C2CC2)cc1Nc1nc(C(=O)NCCCCNc2cccc3c2C(=O)N(C2CCC(=O)NC2=O)C3=O)nc2[nH]c3cc(-c4c(C)noc4C)c(OC)cc3c12 (stereo not shown) [Cpd. No. 9]
tumor growth (MDA-MB-231 xenograft [3]): reduces tumor growth
